Each block holds one molecule with its values, some of them ahead of it. Square brackets hold non-standard residues; d marks the D form. Ends that are not written are not given here. pGlu = O=C1CC[C@@H](C(=O)O)N1
What was measured:
[1] = Chromatographic characterization of radioactive peptide uptake by tissues; type: in vivo, rat; conditions: 180 min after injection
Description: The chromatographic characteristics of the labeled compound associated, in vivo, to target organs were assessed by HPLC.
At selected time points (2 and 180 min.) after administration of tritiated pentapeptide, the anesthetized rats were sacrificed (cardiac blood puncture) and tissues quickly removed on ice. The tissues were immediately homogenized at 4° C. in 5-10 volumes of 0.1 M chlorhydric acid using a potter homogenizer (demineralization of bone tissue was realized after 24-48 h at 4° C. in guanidium hydrochloride and EDTA pretreatment, 4 M and 0.25 M final concentration, respectively). Homogenates were centrifuged for 30 min. at 4° C. and 15,000 g. To determine total radioactivity, aliquots of the supernatant solution were added to 50 volumes of Biofluor (NEN, Dupont de Nemours, France) and counted in a liquid scintillation counter.
To determine the radioactivity in the pentapeptide fraction, aliquots of the tissue extracts were submitted to a methanol-extraction procedure (Rougeot et al., 1994) after neutralization with Tris/HCl pH 8.5 containing 16 mM DTPA (DiethyleneTriaminePenta-Acetic acid, Sigma, France). […] Fractions were collected every 60 sec. and analyzed for radioactivity using a liquid scintillation counter.

[2] = Pentapeptide metabolic and pharmacokinetic studies after i.v. bolus of tritiated pentapeptide; type: in vivo, rat
Description: The in vivo time course of distribution, metabolism and elimination of the pentapeptide was investigated in anesthetized adult male rats using physiological concentrations of circulating tritiated pentapeptide.
Anesthetized male rats were given a bolus intravenous injection of 170 pmoles or 110 ng tritiated pentapeptide diluted in 100 μl PBS Dulbecco's. Blood was collected in tubes containing a mixture of peptidase inhibitors described above, via a silastic catheter implanted into the external jugular vein. Blood was withdrawn just before and 2, 4, 6, 8, 10, 20, 30, 45, 60, 90 and 120 min. after peptide administration. Two milliliters of blood per rat were taken in all and the entire urinary bladder content was collected at a last selected point.
The biological samples were submitted to centrifugation and Parapak Q extraction conditions, as described above. Chromatrography using HPLC procedure described above and in the reference (Rougeot et al., 1994) was then applied to each extracted sample. The ODS AQ RP-C18 was used for identification of amino-terminal metabolites and Pep RPC HR C18 (Pharmacia, France) for identification of carboxyl-terminal metabolites. The radioactivity content of samples before and after chromatographic separations was determined using a beta counter (Kontron, MR300).

[3] = system: pentapeptide binding sites; experiment: In vivo displacement of ^3H-pentapeptide uptake by coinjection of 100-fold excess unlabeled peptide; parameters: species or system rat; conditions: for specific labeling percentage: 60 min, 100-fold excess unlabeled peptide
Source text: Biological receptor sites have two essential characteristics that allow specific binding to be identified, in vivo; they have a high affinity for the ligand and the binding is saturable (Whitcomb et al., 1993). Therefore, displacement experiments, using parallel systemic administration of an excess of the corresponding unlabeled peptide has been performed. Furthermore, the specific cellular localization of labeled pentapeptide to target tissues has been identified by section microscopic autoradiography.
(§1) The cellular-site localization for physiological concentrations of labeled pentapeptide was investigated by paraffin- or resin-section microscopic autoradiography procedure. Sixty minutes after ^3H-pentapeptide (555 KBq, 160 ng or 250 pmoles) i.v. administration, the anesthetized male rats were perfused via the jugular veins with ice-cold Krebs Ringer Bicarbonate Glucosed buffer and then 0.5% paraformaldehyde/0.5% glutaraldehyde fixative PBS buffer (plus glucose 1.6%, CaCl2 0.002% and DMSO 1%) (50 ml/5 min. for each). Tissues were rapidly removed and harvested for paraffin sectioning (Paraplast plus-Sherwood medical, OSI, France) or for resin sectioning (histo-resin Leica, France). All sections were cut at 5 microns (Reichert Jung for paraffin and RM2155 Leica for resin sections) and mounted on Superfrost/Plus glass slides (non gelatin-coated). Paraffin was removed with xylene, and sections were carried through a descending, then an ascending ethanol series (from 100 to 50%, V/V and reverse). Dried sections were then processed for light microscope autoradiography by attaching nuclear emulsion-coated (Kodak, NTB2, diluted 1:1 with distilled water) coverslips to them. After air drying for 2 hrs at room temperature the autoradiographs were exposed for 6 to 10 weeks in light-tight boxes at 4° C. Radiosensitive coverslips were developed in Kodak D19 (3 min.) developer and fixed in Kodak fixer (3 min.) Sections were counterstained with Harris' hematoxylin (Prolabo, France) and Toluidine blue (Sigma, France), dehydrated and mounted in Eukitt medium. The tissue and overlying silver grains were viewed and photographed with a Leica photomicroscope equipped with bright-field optics (DMRD Leitz, Leica).
The tritium activity was determined as counts/mm^2.
In the case of radioactive quantification of organ sections or acid extracts, using a liquid scintillation counter (MR300Kontron), the tritium activity was determined as cpm/mg protein. Protein concentration was determined by the Bradford method (Bradford et al., 1976).

[4] = rat, in vivo
Description: Labeled compound i.e. 6.66 MBq, 3 nmoles or 2 mg for whole body autoradiography (WBA) and 370-555 KBq, 170-250 pmoles or 110-160 ng for the pharmacokinetic and cellular-site distribution studies was diluted in 100-200 ml of phosphate-buffered saline (PBS Dulbecco's, Bio Media, France) and administered intravenously into the jugular vein of anesthetized rats (halothan for WBA or pentobarbital for all the other experiments).
The target tissues for the final secretory maturation product of SMR1, the pentapeptide, was examined, in vivo, by the whole body autoradiography procedure according to the method of Ullberg (Ullberg et al., 1981).
The five week-old rats were sacrificed under halothane, at 90 sec., 3, 60 and 240 min. after i.v. injection of 3 nmoles (6.66 MBq or 2 μg) of tritiated pentapeptide. At the selected time, the restrained animal was immediately immersed in a −80° C. mixture of dry ice and isopentane, to prevent artifactual tracer redistribution. After 48 hours in self-sealing plastic stored at −30° C., the animal was then blocked in mounting medium. Whole body sagittal sections (20 mm) of the frozen rat were made at −30° C. with a cryostat (whole body slicing microtome Leitz 400 with a chest mobile freezer Leitz O M, Leica, France). Sections adhering to Scotch tape were left in a freezer, temperature −30° C., for 4 days to insure complete drying. The tapes were placed in a film cassette with ^3H Hyperfilm (Amersham, France) at −20° C. After two weeks the films were developed in Kodak D19 developer and fixed in Kodak fixer.
Data from whole body sections or individual organ sections placed in the gas-chamber detector were collected for 8 hr. or 50 hr., respectively. The number of counts per pixel was recorded in the β imager 2200 (Biospace, France) with a surface detector of 20×20 cm^2, followed by computer-assisted image analysis with the β Vision program using a HP Vectra computer. The tritium activity was determined as counts/mm^2. The linearity of this method of detection allowed measurement of the non specific binding of ^3H-pentapeptide, measured in various structures or compartments within the section with apparent non binding sites for the peptide (background tissues, e.g. muscle and cardiac blood except brain and spinal cord) or in the same labeled structure, in displacement experiments.

[5] = system: ^3H-pentapeptide binding sites; experiment: Cellular localization of ^3H-pentapeptide binding sites by light microscopic autoradiography; type: in vivo, rat
Description: as §1

[6] = rat, in vivo; remark: listed apart in the source
Description: FIG. 4. Quantitative profile of radioactivity in various tissues following administration of 100 pmoles ^3H-hexapeptide, 60 min post-dose or plus 100 nmoles unlabelled peptide to non specific binding.
Quantification was assessed using a spectrometer and calculated as cpm/mg protein from whole tissue extracts.
FIG. 5. Quantitative profile of radioactivity in various tissues following administration of 5 pmoles ^125I-undecapeptide (VRGPRRQHNPR, SEQ ID NO: 7), 10 min post-dose or plus 100 nmoles unlabeled peptide to non specific binding.
Quantification was assessed using a gama-spectrometer and calculated as cpm/g tissue.

[7] = biological target: anti-pentapeptide serum (rabbit antiserum raised against QHNPR conjugated to egg albumin); experiment: competitive liquid phase RIA, displacement of 125I-labelled pentapeptide from the antiserum
[8] = single i.v. injection of 110 ng

radioactive extract representing metabolites ([1]; DTPA): 8±6%
radioactive peptide fraction extracted by methanol ([1]; DTPA 16 mM added): 53±9%
amount eliminated through glomerular filtration ([2]; over a 60 min period, anesthetized rats, 170 pmoles dose): 6 pmol
pentapeptide-binding substance complex as share of the circulating peptide fraction ([2]; plasma): approximately 45%
urine radioactivity that is pentapeptide metabolites ([2]; rat, in vivo): Approximately 80%
time from which plasma concentration is back close to a basal level [2, 8]: ≥ 30 min
time to maximal plasma level [2, 8]: ≤ 2 min
infused pentapeptide metabolized in the bloodstream ([2]; within 4 min): 35%
radioactivity in the intestinal content [4]: No radioactivity was found
time by which binding to tissue sites has occurred [4]: ≤ 90 s
time over which binding is stable [4]: 240 min
tissue to blood ratio [4]: ~2
cellular localization of silver grains ([5]; bone tissue): the trabeculae bone spaces
cellular localization of silver grains ([5]; dental tissue, upper incisor root): over the entire dentin layer
cellular localization of silver grains ([5]; glandular gastric mucosa): over the chief or peptic cells
cellular label ([5]; glomeruli, epithelia of distal and collecting tubules): No specific cellular label
cellular label ([5]; pancreatic ducts and islets of Langerhans): No label was observed
cellular localization of silver grains ([5]; pancreatic tissue): over the cells of acini
Molecule: QHNPR [pentapeptide, (Gln1)-His-Asn-Pro-Arg, tracer form is (Glp1/Gln1)-His-Asn-(3,4^3H)Pro-Arg]
specific labeling percentage ([3]; glandular mucosa of the stomach): 38-61%
specific labeling percentage ([3]; long bone): 29-38%
specific labeling percentage ([3]; pancreatic lobules): 37-55%
displacement of uptake by excess cold ligand ([3]; renal outer medullary): almost complete displacement
specific labeling percentage ([3]; submandibular lobules): 51-91%
cellular localization of silver grains ([5]; kidney, 60 min, physiological concentration): over the epithelial cells of the S3 segment of the straight portion of the proximal tubules
cellular label ([5]; submandibular tissue): no selective cell association of label was identifiable

preferred target organs [6]: kidney and pancreas
retention by the glandular mucosa of stomach [6]: very efficiently retained
Molecule: RQHNPR [hexapeptide]
target organs compared with the pentapeptide [6]: almost the same as the target organs of the pentapeptide

preferred target organs [6]: kidney and pancreas
Molecule: VRGPRRQHNPR [undecapeptide]
target organs compared with the pentapeptide [6]: almost the same as the target organs of the pentapeptide

amount of standard for 50% displacement [7]: < 570 fmol
detection limit (80% binding) [7]: 106 fmol
Molecule: [pGlu]HNPR [(Glp1)-His-Asn-Pro-Arg]

cross-reactivity [7]: < 0.01%
Molecule: QHNP [tetrapeptide sequence (QHNP)]

amount of standard for 50% displacement [7]: < 570 fmol
detection limit (80% binding) [7]: 106 fmol
Molecule: QHNPR [(Gln1)-His-Asn-Pro-Arg, SMR1-derived pentapeptide QHNPR (unlabelled)]

— US7429448B2, “Therapeutic use of the SMR1 protein and active derivatives thereof” (Institut Pasteur, priority 1998, dated 2008)
